Activity calls are given as the source filed them. The rule behind the calls is not given here.
Key:
[1] = Tmax in mouse at 5.5 mg/kg, ip by HPLC/MS/MS analysis; assay type: ADME, organism-based; details: in vivo
[2] = molecular target: 3',5'-cyclic-AMP phosphodiesterase 4B (Homo sapiens, UniProt Q07343); assay: Inhibition of PDE4B (unknown origin)
[3] = Half life in mouse at 5.5 mg/kg, ip by HPLC/MS/MS analysis; assay type: ADME, organism-based; details: in vivo
[4] = Effect on cleaved PARP level in human NCI-H1694 cells assessed as fold change at 10 nM measured after 7 days by Western blot analysis (reference value: 1.00); assay type: functional; details: time 7 day
[5] = Effect on cleaved PARP level in human NCI-H2171 cells assessed as fold change at 10 nM measured after 7 days by Western blot analysis (reference value: 1.00); assay type: functional; details: time 7 day
[6] = Toxicity in dog assessed as multifocal hemorrhage in organs measured for 28 days; parameters: species or system Canis lupus familiaris; details: in vivo, 672 h, time 28 day
[7] = Effect on cleaved PARP level in human NCI-H510 cells assessed as relative expression at 10 nM measured after 10 days by Western blot analysis (reference value: 0.02); assay type: functional, NCI-H510A; details: time 10 day
[8] = Effect on cleaved PARP level in human NCI-H510 cells assessed as relative expression at 100 nM measured after 10 days by Western blot analysis (reference value: 0.02); assay type: functional, NCI-H510A; details: time 10 day
[9] = Effect on cleaved PARP level in human COLO-668 cells assessed as fold change at 10 nM measured after 7 days by Western blot analysis (reference value: 1.00); assay type: functional; details: time 7 day
NCI-H526 [10] = assay: In vivo inhibition of LSD1 in human NCI-H526 cells xenografted in nude mouse assessed as change in ANXA6 gene expression administrated daily for 5 days by qRT-PCR analysis; assay type: functional, organism-based; details: dose 0.02-135 mg/kg, time 5.0 day
[11] = Effect on cleaved PARP level in human NCI-H69 cells assessed as fold change at 1000 nM measured after 10 days by Western blot analysis (reference value: 1.00); assay type: functional; details: time 10 day
NCI-H526 [12] = assay: Antitumor activity against human NCI-H526 cells xenografted in nude mouse assessed as mean tumor volume at 1.5 mg/kg, po administered daily measured twice weekly (reference value: 2359 +/- 247 mm3); assay type: functional
NCI-H526 [13] = assay: Upregulation of LSD1 signal enrichment at typical enhancers in human NCI-H526 cells at 1 uM; assay type: functional, cell-based
[14] = AUC (0 to infinity) in mouse tumor at 5 mg/kg, po by HPLC/MS/MS analysis; assay type: ADME, organism-based, Neoplasm
[15] = Effect on cleaved PARP level in human NCI-H2171 cells assessed as relative expression at 100 nM measured after 14 days by Western blot analysis (reference value: 0.01); assay type: functional; details: time 14 day
NCI-H526 [16] = assay: Upregulation of LSD1 signal enrichment at super enhancers in human NCI-H526 cells at 1 uM; assay type: functional, cell-based
[17] = Effect on cleaved PARP level in human NCI-H146 cells assessed as fold change at 10 nM measured after 14 days by Western blot analysis (reference value: 1.00); assay type: functional; details: time 14 day
[18] = Toxicity in rat assessed as thrombocytopenia measured for 28 days; details: in vivo, 672 h, time 28 day
[19] = Half life in mouse blood at 5 mg/kg, po by HPLC/MS/MS analysis; assay type: ADME, organism-based
[20] = Effect on cleaved PARP level in human NCI-H69 cells assessed as relative expression at 100 nM measured after 10 days by Western blot analysis (reference value: 0.03); assay type: functional; details: time 10 day
[21] = Effect on cleaved PARP level in human NCI-H526 cells assessed as relative expression at 10 nM measured after 14 days by Western blot analysis (reference value: 0.66); assay type: functional; details: time 14 day
[22] = Effect on cleaved PARP level in human NCI-H2171 cells assessed as fold change at 1000 nM measured after 7 days by Western blot analysis (reference value: 1.00); assay type: functional; details: time 7 day
[23] = Effect on cleaved PARP level in human NCI-H524 cells assessed as fold change at 1000 nM measured after 14 days by Western blot analysis (reference value: 1.00); assay type: functional; details: time 14 day
[24] = Effect on cleaved PARP level in human NCI-H1417 cells assessed as relative expression at 10 nM measured after 10 days by Western blot analysis (reference value: 0.19); assay type: functional; details: time 10 day
[25] = Effect on cleaved PARP level in human NCI-H889 cells assessed as fold change at 1000 nM measured after 14 days by Western blot analysis (reference value: 1.00); assay type: functional; details: time 14 day
[26] = Effect on cleaved PARP level in human NCI-H524 cells assessed as fold change at 10 nM measured after 10 days by Western blot analysis (reference value: 1.00); assay type: functional; details: time 10 day
NCI-H1417 = assay: Antitumor activity against human NCI-H1417 cells xenografted in nude mouse assessed as tumor growth inhibition at 1.5 mg/kg, po administered daily measured twice weekly relative to control; assay type: functional; details: read-out: TGI
[27] = Effect on cleaved PARP level in human COLO-668 cells assessed as fold change at 1000 nM measured after 10 days by Western blot analysis (reference value: 1.00); assay type: functional; details: time 10 day
[28] = Effect on cleaved PARP level in human NCI-H69 cells assessed as fold change at 10 nM measured after 10 days by Western blot analysis (reference value: 1.00); assay type: functional; details: time 10 day
[29] = Effect on cleaved PARP level in human NCI-H1694 cells assessed as fold change at 100 nM measured after 7 days by Western blot analysis (reference value: 1.00); assay type: functional; details: time 7 day
[30] = Effect on cleaved PARP level in human NCI-H510 cells assessed as fold change at 1000 nM measured after 10 days by Western blot analysis (reference value: 1.00); assay type: functional, NCI-H510A; details: time 10 day
[31] = Effect on cleaved PARP level in human NCI-H1417 cells assessed as fold change at 100 nM measured after 10 days by Western blot analysis (reference value: 1.00); assay type: functional; details: time 10 day
[32] = Effect on cleaved PARP level in human NCI-H1694 cells assessed as relative expression at 100 nM measured after 10 days by Western blot analysis (reference value: 0.31); assay type: functional; details: time 10 day
[33] = Toxicity in dog assessed as effect on ECG measured for 28 days; parameters: species or system Canis lupus familiaris; details: in vivo, 672 h, time 28 day
[34] = Effect on cleaved PARP level in human NCI-H2171 cells assessed as fold change at 1000 nM measured after 14 days by Western blot analysis (reference value: 1.00); assay type: functional; details: time 14 day
[35] = Effect on cleaved PARP level in human NCI-H2171 cells assessed as relative expression at 10 nM measured after 10 days by Western blot analysis (reference value: 0.02); assay type: functional; details: time 10 day
NCI-H146 = assay: Effect on SYP gene expression in human NCI-H146 cells at 1 uM measured after 4 days by qRT-PCR analysis; assay type: functional, cell-based; details: time 4.0 day
NCI-H526 [36] = assay: In vivo inhibition of LSD1 in human NCI-H526 cells xenografted in nude mouse assessed as change in FEZ1 gene expression administrated daily for 5 days by qRT-PCR analysis; assay type: functional, organism-based; details: dose 0.02-135 mg/kg, time 5.0 day
[37] = Effect on cleaved PARP level in human NCI-H524 cells assessed as fold change at 10 nM measured after 14 days by Western blot analysis (reference value: 1.00); assay type: functional; details: time 14 day

3',5'-cyclic-AMP phosphodiesterase 4B, sequence (Q07343 whole entry): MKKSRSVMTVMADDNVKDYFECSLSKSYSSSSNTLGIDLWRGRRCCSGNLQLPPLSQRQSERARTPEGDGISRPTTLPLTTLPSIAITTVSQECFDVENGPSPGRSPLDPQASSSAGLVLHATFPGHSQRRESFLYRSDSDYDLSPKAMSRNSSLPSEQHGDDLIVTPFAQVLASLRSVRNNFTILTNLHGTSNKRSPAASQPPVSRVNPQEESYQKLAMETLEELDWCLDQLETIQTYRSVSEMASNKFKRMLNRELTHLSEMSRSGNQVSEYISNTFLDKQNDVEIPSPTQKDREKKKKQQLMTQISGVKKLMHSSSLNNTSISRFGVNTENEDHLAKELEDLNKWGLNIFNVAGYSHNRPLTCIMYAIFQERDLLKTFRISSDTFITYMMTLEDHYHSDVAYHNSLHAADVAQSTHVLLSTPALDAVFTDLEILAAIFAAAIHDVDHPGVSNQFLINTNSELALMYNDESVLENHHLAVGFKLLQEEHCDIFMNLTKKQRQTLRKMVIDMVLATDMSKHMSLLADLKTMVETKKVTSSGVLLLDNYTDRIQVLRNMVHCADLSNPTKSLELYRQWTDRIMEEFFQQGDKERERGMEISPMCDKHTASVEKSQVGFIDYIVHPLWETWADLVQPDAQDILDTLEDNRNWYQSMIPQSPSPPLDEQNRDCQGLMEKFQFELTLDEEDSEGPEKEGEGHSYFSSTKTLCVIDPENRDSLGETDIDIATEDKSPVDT

In the case of c1ccc([C@@H]2C[C@H]2NC2CCNCC2)cc1, the Tmax [1] is reported as 0.3 h, the IC50 [2] is reported as > 100 µM and the half-life [3] is reported as 3.6 h.

For O=C(O)c1ccc(CN2CCC(CN[C@@H]3C[C@H]3c3ccccc3)CC2)cc1 [GSK2879552], the “fold change (FC)” value [4] was 1.22, the “fold change (FC)” value [5] was 1.53 and the Activity [6] was “Toxic”. For the same molecule, the Activity [7] was 0.08, the Activity [8] was 0.18 and the “fold change (FC)” value [9] was 0.74. The inhibition (NCI-H526 [10]) was “Dose-Dependent Effect”, the “fold change (FC)” value [11] was 2.5 and the Activity (NCI-H526 [12]) was 1113 mm3. For the same molecule, the Activity (NCI-H526 [13]) was “Active”, the AUC(0-inf) [14] was 2690 ng·h/mL and the Activity [15] was 0.02. For the same molecule, the Activity (NCI-H526 [16]) was “Active”, the “fold change (FC)” value [17] was 0.64 and the Activity [18] was “Toxic”. The half-life [19] was 1.9 h, the Activity [20] was 0.06 and the Activity [21] was 0.48. For the same molecule, the “fold change (FC)” value [22] was 2.18, the “fold change (FC)” value [23] was 0.77 and the Activity [24] was 0.27. The “fold change (FC)” value [25] was 2.82, the “fold change (FC)” value [26] was 0.81 and the inhibition in vivo at 1.5 mg/kg (NCI-H1417) was 83%. The “fold change (FC)” value [27] was 0.59, the “fold change (FC)” value [28] was 1.74 and the “fold change (FC)” value [29] was 1.11. The “fold change (FC)” value [30] was 12.67, the “fold change (FC)” value [31] was 2.14 and the Activity [32] was 0.23. The Activity [33] was “Toxic”, the “fold change (FC)” value [34] was 2.4 and the Activity [35] was 0.02. The Activity (NCI-H146) was “inactive”, the inhibition (NCI-H526 [36]) was “Dose-Dependent Effect” and the “fold change (FC)” value [37] was 0.79.
